Holding throughout (assay type): cell-based
Assay [1] addresses T1, human CaSR (Homo sapiens, UniProt P41180).
T1 construct: expressed in transfected cells; host or cells: 293E cells (HEK293 cells expressing EBNA1, ATCC No. CRL-10852), transient transfection
T1 sequence (P41180 20-1078): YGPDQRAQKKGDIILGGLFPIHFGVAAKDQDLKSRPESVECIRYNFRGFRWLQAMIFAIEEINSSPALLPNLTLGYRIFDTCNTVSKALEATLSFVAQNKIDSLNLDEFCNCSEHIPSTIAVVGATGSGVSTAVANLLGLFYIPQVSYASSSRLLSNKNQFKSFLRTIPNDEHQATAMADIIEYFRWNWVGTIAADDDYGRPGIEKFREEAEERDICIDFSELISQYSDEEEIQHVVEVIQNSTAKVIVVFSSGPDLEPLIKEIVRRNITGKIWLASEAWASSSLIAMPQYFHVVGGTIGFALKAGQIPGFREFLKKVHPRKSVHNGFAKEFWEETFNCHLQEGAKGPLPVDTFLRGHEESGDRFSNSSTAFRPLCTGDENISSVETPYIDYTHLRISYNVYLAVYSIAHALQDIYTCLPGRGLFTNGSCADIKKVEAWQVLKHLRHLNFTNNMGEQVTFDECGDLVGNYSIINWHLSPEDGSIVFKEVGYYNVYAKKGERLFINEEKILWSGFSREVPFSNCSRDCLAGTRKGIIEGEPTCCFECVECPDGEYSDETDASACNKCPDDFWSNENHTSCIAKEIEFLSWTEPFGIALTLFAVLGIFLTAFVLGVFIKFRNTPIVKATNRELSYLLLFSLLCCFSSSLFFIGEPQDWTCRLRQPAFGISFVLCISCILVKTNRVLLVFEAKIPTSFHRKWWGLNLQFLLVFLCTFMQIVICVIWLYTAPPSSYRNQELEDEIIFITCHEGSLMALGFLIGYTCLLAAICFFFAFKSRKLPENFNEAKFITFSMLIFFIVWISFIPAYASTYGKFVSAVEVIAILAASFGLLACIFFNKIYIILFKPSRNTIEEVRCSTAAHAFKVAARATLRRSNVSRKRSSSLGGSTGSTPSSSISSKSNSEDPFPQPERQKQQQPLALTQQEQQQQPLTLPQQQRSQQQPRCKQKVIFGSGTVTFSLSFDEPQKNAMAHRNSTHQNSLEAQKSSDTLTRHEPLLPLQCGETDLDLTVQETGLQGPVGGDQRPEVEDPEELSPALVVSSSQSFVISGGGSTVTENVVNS
As to the kind of experiment: Evaluation of CaSR agonist activity (Ca2+ fluorescence, FLIPR, 293E cells transfected with hCaSR/pcDNA3.1). On the procedure:
The CaSR gene was prepared in accordance with the method described in Example 1 of WO 07/55393. Using the recombinant plasmid obtained, human CaSR expression plasmid hCaSR/pcDNA3.1 was prepared.
293E cells (HEK293 cells expressing EBNA1, ATCC No. CRL-10852) were cultured in DMEM (Dulbecco's Modified Eagle's Medium containing […], NACALAI TESQUE, INC.) containing 10% fetal calf serum, in the presence of 250 μg/ml of G418. The cells were spread on a Petri dish of 10 cm diameter in 1.8×10^6 cells/15 ml. After the cells were allowed to stand in a CO2 incubator (5% CO2, 37° C.) for 24 hours, human CaSR expression plasmid hCaSR/pcDNA3.1 was transfected with a transfection reagent Mirus TransIT 293 (Takara Bio Inc.). After the cells were allowed to stand in the CO2 incubator for 24 hours, the cells were collected by DMEM containing 10% fetal calf serum and plated on a poly-D-lysine coated 384 well plate (Falcon) in 15,000 cells/well. After the cells were allowed to stand in the CO2 incubator for 24 hours, the medium was removed. Then, 50 μL/well of Ca^2+ fluorescence indicator Calcium 4 Assay Kit (Molecular Devices) that was dissolved in an assay buffer (146 mM NaCl, 5 mM KCl, 1 mM MgSO4, 1 mg/ml glucose, 20 mM HEPES (pH 7.2) and 1.5 mM CaCl2) was added thereto, and allowed to stand at 37° C. for an hour and then at room temperature for 30 minutes to load the fluorescence indicator. The 384 well plate described above was transferred to FLIPR (Molecular Devices), and 12.5 μL/well of a compound that was dissolved in a 0.1% BSA containing-assay buffer was added thereto. Changes in fluorescence intensity were monitored for 3 minutes. Compound No. 20 was purchased from Bachem.

In assay [2] the test system is Human cecum-derived cell line NCI-H716. As to the kind of experiment: GLP-1 secretion promoting activity in NCI-H716 cells. To be noted: 37° C., 60 minutes. As to the method:
Human cecum-derived cell line NCI-H716 (ATCC No. CCL-251) was cultured in 10% FBS-containing DMEM/Ham's F-12 medium at 37° C. in the presence of 5% CO2. The NCI-H716 cells were plated on a poly-D-lysine-coated 96-well plate in 100,000 cells/well, followed by culturing for 2 days. Prior to the addition of a sample, the wells were washed with Hepes buffer (20 mM Hepes, 146 mM NaCl, 5 mM KCl, 1.5 mM CaCl2, 1 mM MgSO4, 5.5 mM D-glucose, 0.2% BSA, pH 7.4). Then, 50 μl of a solution of the sample in the same buffer, and incubation was performed at 37° C. for 60 minutes. Compounds No. 1 (20 mM), No. 7 (20 mM), No. 21 (20 mM), No. 22 (20 mM), No. 33 (7.5 mM) and No. 34 (7.5 mM) listed in TABLE 1 were used as the sample. As for control, Hepes buffer was used. After the supernatant was collected, the cells were precipitated by centrifugation (5000×g, 1 minute) and the supernatant was recovered. The GLP-1 concentration in the supernatant was measured as follows by the method for GLP-1 quantification using the GLP-1 receptor gene expression cells.
Human GLP-1 receptor gene (SEQ ID NO: 1) was incorporated into pcDNA3.1 in a conventional manner (López de Maturana R, Willshaw A, Kuntzsch A, Rudolph R, Donnelly D. J. Biol. Chem. 2003 Mar. 21; 278 (12): 10195-200.) to construct human GLP-1 receptor gene expression plasmid hGLP-1R/pcDNA3.1. Also, the chimeric gene (SEQ ID NO: 2) of human Gα15 gene and human gustducin gene was incorporated into pcDNA3.1 to construct G-protein expression plasmid Gα15-gust/pcDNA3.1. Using a transfection reagent FuGene 6 (Roche Japan, Inc.), hGLP-1R/pcDNA3.1 and Gα15-gust44/pcDNA3.1 were cotransfected to HEK293E cells (ATCC No. CRL-10852). After incubation in a CO2 incubator for 4 to 6 hours, the cells were suspended in 5% FBS-containing DMEM/Ham F12 and plated onto a poly-D-lysine-coated 96-well plate in 70,000 cells/well. After incubation for 24 hours in a CO2 incubator, changes in fluorescence intensity were begun to monitor immediately after the addition of a sample, using a FlexStation (Molecular Devices) according to the Ca^2+ fluorescence indicator FLIPR Calcium 4 Assay Kit protocol (Molecular Devices). Concentration dependence in response to changes in fluorescence intensity of human GLP-1 (7-36 amide; Peptide Institute, Inc.) was determined and used as a standard curve for quantitative determination of the sample. The expression plasmid used here may be constructed by the methods described in, e.g., Proc. Natl. Acad. Sci. USA. 1992 Sep. 15; 89 (18): 8641-5, FEBS Letters Volume 373, Issue 29, October 1995, Pages 182-186), The Journal of Neuroscience, Aug. 13, 2003, 23 (19): 7376-7380), etc.
The amount of GLP-1 secreted when the measurement value of control obtained using the buffer was made 1 was expressed as a relative value.

The test system is the same in assay [3]. As to the kind of experiment: CCK secretion promoting activity in NCI-H716 cells. To be noted: 37° C., 30 minutes. On the procedure: Human cecum-derived cell line NCI-H716 (ATCC No. CCL-251) was cultured in DMEM/Ham's F-12 medium containing 10% FBS at 37° C. in the presence of 5% CO2. The NCI-H716 cells were plated on a poly-L-lysine-coated 24-well plate in 600,000 cells/well, followed by culturing for 2 days. Prior to the addition of a sample, the wells were washed with Hepes buffer (20 mM Hepes, 146 mM NaCl, 5 mM KCl, 1.5 mM CaCl2, 1 mM MgSO4, 5.5 mM D-glucose, 0.02% BSA, pH 7.4). Then, 300 μl of a solution of the sample in the same buffer, and incubation was performed at 37° C. for 30 minutes. Compounds No. 1 (20 mM) No. 7 (2 mM), No. 21 (2 mM), No. 22 (2 mM), No. 33 (0.1 mM) and No. 34 (1 mM) listed in TABLE 2 were used as the sample. For control, Hepes buffer was used. After the supernatant was collected, the cells were precipitated by centrifugation (5000×g, 1 minute). The supernatant was recovered and lyophilized in a Speed Vac Concentrator from Savant Instruments Inc., and 60 μl of water was added thereto for dissolution. The CCK concentration in the solution was determined using an Enzyme Immunoassay Kit (EK-069-04; PHOENIX PHARMACEUTICALS).
The amount of CCK secreted when the measurement value of control obtained using the buffer was made 1 was expressed as a relative value.

Where [4] appears, read: 293E cells expressing human CaSR, 1.5 mM CaCl2 assay buffer, Table 5.
[5] abbreviates: measured in a manner similar to Example III, Table 6.

Here are results for 11 molecules from patent US8877739B2, “Prophylactic agent or therapeutic agent for diabetes or obesity” (Ajinomoto Co., Inc., priority 2010, dated 2014).

In general, EC50 refers to the concentration that produces a half-maximal response. A lower EC50 goes with a more potent agent.

Structures are written as SMILES.

In the case of `N[C@@H](COC(=O)N(O)c1cccc(S(=O)(=O)O)c1)C(=O)O` [Compound 43, 0-{[hydroxy(3-sulfophenyl)amino]carbonyl}-L-serine], the 50% effective concentration (EC50) in assay [1] (setting [4]) was found to be 43 nM. Turning to `Cc1c(Cl)cc(NC(=O)CC[C@H](N)C(=O)O)cc1S(=O)(=O)O` [Compound 21, N^5-(3-chloro-4-methyl-5-sulfophenyl)-L-glutamine], the “Relative Value (amount of GLP-1 secreted, buffer control = 1)” value in assay [2] (sample 20 mM) was determined as 4.38. Further, the “Relative Value (amount of CCK secreted, buffer control = 1)” value in assay [3] (sample 2 mM) came out at 4.54. For `N[C@@H](CCC(=O)Nc1cc(Cl)cc(S(=O)(=O)O)c1O)C(=O)O` [Compound 7, N^5-(5-chloro-2-hydroxy-3-sulfophenyl)-L-glutamine], in assay [2] (sample 20 mM), the “Relative Value (amount of GLP-1 secreted, buffer control = 1)” value is 2.90. The “Relative Value (amount of CCK secreted, buffer control = 1)” value in assay [3] (sample 2 mM) is recorded as 1.99. On to `Cc1c(Cl)cc(NC(=O)OC[C@H](N)C(=O)O)cc1S(=O)(=O)O` [Compound 33, O-{[(3-chloro-4-methyl-5-sulfophenyl)amino]carbonyl}-L-serine], for which the “Relative Value (amount of GLP-1 secreted, buffer control = 1)” value in assay [2] (sample 7.5 mM) is recorded as 1.87. The “Relative Value (amount of CCK secreted, buffer control = 1)” value in assay [3] (sample 0.1 mM) is reported as 1.51.

As to `COC(=O)[C@@H](N)CCC(=O)Nc1cccc(S(=O)(=O)O)c1` [Compound 44, 3-[(4S)-4-amino-5-methoxy-5-oxopentanamido]benzene-1-sulfonic acid], it took 23 nM to reach a half-maximal effect in assay [1] (setting [5]) (EC50). On to `N[C@@H](CCC(=O)Nc1cccc(S(=O)(=O)O)c1)C(=O)O` [Compound 1, N^5-(3-sulfophenyl)-L-glutamine], for which, in assay [2] (sample 20 mM), the “Relative Value (amount of GLP-1 secreted, buffer control = 1)” value is listed as 1.82. The “Relative Value (amount of CCK secreted, buffer control = 1)” value in assay [3] (sample 20 mM) is 2.16. Turning to `Cc1c(Cl)cc(S(=O)(=O)O)cc1NC(=O)CC[C@H](N)C(=O)O` [Compound 22, N^5-(3-chloro-2-methyl-5-sulfophenyl)-L-glutamine], the “Relative Value (amount of GLP-1 secreted, buffer control = 1)” value in assay [2] (sample 20 mM) worked out at 2.22. In assay [3] (sample 2 mM), the “Relative Value (amount of CCK secreted, buffer control = 1)” value was found to be 2.49. As for `CCOC(=O)[C@@H](N)CCC(=O)Nc1cc(Cl)cc(S(=O)(=O)O)c1O` [Compound 50, 3-[(4S)-4-amino-5-ethoxy-5-oxopentanamido]-5-chloro-2-hydroxybenzene-1-sulfonic acid], in assay [1] (setting [5]), the concentration giving a half-maximal response (EC50) was 4 nM. Still for that read-out and setting: in the case of `COC(=O)[C@@H](N)COC(=O)Nc1cc(Cl)c(C)c(S(=O)(=O)O)c1` [Compound 49, 5-({[(2S)-2-amino-3-methoxy-3-oxopropoxy]carbonyl}amino)-3-chloro-2-methylbenzene-1-sulfonic acid] it was 110 nM. `N[C@@H](CCC(=O)N(O)c1cccc(S(=O)(=O)O)c1)C(=O)O` [Compound 42, N^5-hydroxy-N^5-(3-sulfophenyl)-L-glutamine] displayed a 50% effective concentration (EC50) in assay [1] (setting [4]) of 31 nM. Turning to `N[C@@H](COC(=O)Nc1cc(Cl)cc(S(=O)(=O)O)c1O)C(=O)O` [Compound 34], the “Relative Value (amount of GLP-1 secreted, buffer control = 1)” value in assay [2] (sample 7.5 mM) came out at 2.88. Further, the “Relative Value (amount of CCK secreted, buffer control = 1)” value in assay [3] (sample 1 mM) is on record as 1.77.
